PMC9233675, “Ru(II) photocages enable precise control over enzyme activity with red light” (Nature Communications, 2022)
Substitutions are numbered along the chain they refer to. Where “and” joins values, the source holds several entries; their conditions need not be identical. Identical values can stand only once.

What was measured:
CYP1B1 D333N = target: T1, CYP1B1 D333N (Homo sapiens, UniProt Q16678, D333N); test: In cell CYP1B1 activity assay, D333N variant; settings: for logSI D333N: log of the ratio of IC50 values mutant vs WT (Fig. 3c)
T1 sequence (Q16678 1-543 D333N): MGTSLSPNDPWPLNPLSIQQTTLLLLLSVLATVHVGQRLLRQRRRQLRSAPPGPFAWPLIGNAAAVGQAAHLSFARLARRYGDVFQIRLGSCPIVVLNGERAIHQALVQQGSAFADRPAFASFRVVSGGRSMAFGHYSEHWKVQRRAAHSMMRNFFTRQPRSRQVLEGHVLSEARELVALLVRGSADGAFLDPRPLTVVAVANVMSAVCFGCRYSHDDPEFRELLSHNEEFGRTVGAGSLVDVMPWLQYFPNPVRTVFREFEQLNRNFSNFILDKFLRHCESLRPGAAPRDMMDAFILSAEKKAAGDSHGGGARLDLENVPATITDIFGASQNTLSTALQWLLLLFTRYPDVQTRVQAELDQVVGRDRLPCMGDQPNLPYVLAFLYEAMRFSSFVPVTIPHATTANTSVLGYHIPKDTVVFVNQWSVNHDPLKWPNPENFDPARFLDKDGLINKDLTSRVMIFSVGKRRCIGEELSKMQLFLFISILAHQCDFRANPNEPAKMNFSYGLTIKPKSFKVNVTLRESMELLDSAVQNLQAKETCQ
Excerpt: (§1) Site directed mutagenesis was used to probe the importance of specific active-site contacts identified through the structural assessment (Fig. 3a, b) and simulations. In all cases, conservative mutations were made to maintain polar or hydrophobic character and approximate size. The aromatic residues that frame the inhibitor binding site, Phe143 and Phe231, were mutated to Leu to determine the importance of the π interactions. In addition, the Ser127 residue, located in the upper corner of the active site on the B-C loop, was chosen for mutation based on the simulations. This amino acid transiently contacts the inhibitors, but also forms a hydrogen bond with Asp326 of the I-helix, and thus may impact the position of this helix with regards to the B-C loop. […] Rather than directly mutating these residues in the I-helix, neighboring residues Gln332 and Asp333 were targeted, with the hope of interrupting amino acid interactions that position the helix within the active site.
(§2) The ratio of IC50 values for the WT vs. the mutant are shown in Fig. 3c and reflects the importance of the specific contact; the log of the value is used to aid in visualization.
(§3) Cell lines were seeded onto Geltrex coated 96-well plates at 40,000 cells/well, and grown overnight in DMEM media containing 1 μg/mL tetracycline. The media was then replaced with Opti-MEM supplemented with 2% FBS and 1 μg/mL tetracycline. Compounds were serially diluted in Opti-MEM supplemented with 2% FBS and 1 μg/mL tetracycline and an equal volume of compound added to the cells (n = 3). Following a 1 h incubation, resorufin ethyl ether (REE; for CYP1B1 and 1A1) or dibenzylfluorescein (DBF; for 19A1) was added to the cells for a total concentration of 5 μM for REE and 1 μM for DBF. […] Dose–response curves were generated in Prism and normalized using the no-compound control (set as 100% activity) and the no-cell control (set as 0% activity; this value in the raw data reflects the background fluorescence of the dye alone).

[1] = Stability of compounds in mouse liver microsomes; settings: for Remaining, % (NCF=60min): mouse liver microsomes, no co-factor (no NADPH); for CLint scaled / Remaining, % (T=60min) / half-life / microsomal CLint: mouse, liver microsomes
CYP1B1 S127A = target: T2, CYP1B1 S127A (Homo sapiens, UniProt Q16678, S127A); test: In cell CYP1B1 activity assay, S127A variant; settings: for logSI S127A: log of the ratio of IC50 values mutant vs WT (Fig. 3c)
T2 sequence (Q16678 1-543 S127A): T1 sequence (Q16678 1-543 D333N) with S127A, N333D
Excerpt: as §1, §2, §3

[2] = assay type: physicochemical
Excerpt: Liver Weight Blood Flow Protein
(g/kg Body Weight) (mL/min/kg) (mg/g liver
Supplementary Table 7. Quantum yields of photosubstitution in different solvents.
Compound Φ(PS) 5% DMSO in H2Oa Φ(PS) Opti-MEMa Φ(PS) CH3OH […]
a Quantum yield for photosubstitution, ΦPS, in 5% DMSO in H2O and Opti-MEM, calculated by optical approach
(Fig. S8-10). b ΦPS in 5% DMSO in H2O, determined by HPLC approach. HPLC was used due to overlap in absorbance profiles for 6 and its photochemical product (Fig. S7).
Supplementary Table 8. Lipinski’s rule of five. […]
a log P was calculated by taking the logarithm of the ratio of the MLCT absorbance of each complex (4-6) in octanol to the corresponding absorbance in H2O.
1. Lameijer, L. N. et al. A Red-Light-Activated Ruthenium-Caged NAMPT Inhibitor Remains Phototoxic in Hypoxic Cancer Cells. Angew. Chem. Int. Ed. Engl. 56, 11549-11553,

[3] = Kinetic solubility by UV/Vis; assay type: physicochemical; settings: Opti-MEM with 2% fetal bovine serum, room temperature, 3 hours; for Kinetic solubility C1: replicate 1; for Kinetic solubility C2: replicate 2; for Kinetic solubility C3: replicate 3
Method: Kinetic solubility was measured by UV/Vis. In this experiment, 14 μL of 10 mM DMSO stocks of complexes 4–6 were diluted in 700 μL of Opti-MEM™ with 2% fet al bovine serum and kept at room temperature for 3 hours. The solutions were then filtered using syringe-driven filters (FV12S) and concentrations were measured by UV/vis absorbance in a 96-well plate in triplicate. […]
4. Simulate in the NPT ensemble using a Berendsen thermostat and a Berendsen barostat with: […]
5. Simulate in the NPT ensemble using a Berendsen thermostat and a Berendsen barostat with: […]
6. Simulate in the NPT ensemble using a Berendsen thermostat and a Berendsen barostat with: […]

[4] = Irradiation-induced 1O2 production (Singlet Oxygen Sensor Green assay); assay type: physicochemical; settings: sheet S27; triplicate columns; DMSO control about 0.9
Excerpt: Some Ru(II) complexes can generate singlet oxygen when photoexcited, a feature that has been applied to the selective photoinactivation of proteins. In this approach, the Ru(II) system is conjugated to a peptide that is a specific ligand for the protein target; binding of the peptide to the protein ensures close proximity of the Ru(II) center and thus, upon photoexcitation, the generation of a high local concentration of singlet oxygen. […] As very little of this reactive oxygen species was generated, inactivation of the CYP enzymes by this process appears unlikely.
Supplementary Figure 27. Determination of irradiation-induced 1O2 production with 660 nm light (1 hr = 58.7 J/cm2)
using the Singlet Oxygen Sensor Green assay. […]

SMILES | logSI D333N (CYP1B1 D333N) | Remaining, % (NCF=60min) [1] [%] | CLint scaled [1] [mL/min/kg] | Remaining, % (T=60min) [1] [%] | half-life [1] [min] | microsomal CLint [1] [µL/min/mg] | logSI S127A (CYP1B1 S127A) | log P [2] | Kinetic solubility C average [3] [µM] | Kinetic solubility C1 [3] [µM] | Kinetic solubility C2 [3] [µM] | Kinetic solubility C3 [3] [µM] | irradiation-induced 1O2 production (Singlet Oxygen Sensor Green signal, relative) [4] | IC50 (CYP1B1 D333N) [µM] | Ratio IC50 (mutant)/ IC50 (WT), D333N (CYP1B1 D333N) | IC50 (CYP1B1 S127A) [µM] | Ratio IC50 (mutant)/ IC50 (WT), S127A (CYP1B1 S127A)
COc1ccc(C=Cc2ccncc2)c(OC)c1 [Compound 3] | 3.4 | 137.9 | 1900 | 0.1 | 2.89 | 480 | 2.2 |  |  |  |  |  |  |  |  |  | 
COc1cc(/C=C/c2ccc(OC)cc2OC)cc(OC)c1 [Compound 1, reference compound] | 2 |  |  |  |  |  | -1.5 |  |  |  |  |  |  |  |  |  | 
COc1ccc(/C=C/c2cc[n+]([Ru-4]345([n+]6ccccc6-c6cccc([n+]63)-c3cccc[n+]34)[n+]3c(cc(C(=O)[O-])c4ccccc43)-c3cc(C(=O)[O-])c4ccccc4[n+]35)cc2)c(OC)c1 [Compound 6] |  |  |  |  |  |  |  | 0.2 | 36.9 | 33.9 | 38.5 | 38.2 | 0.9896 and 0.937 and 1.032 |  |  |  | 
COc1ccc(/C=C/c2cc[n+]([Ru-4]345([n+]6ccccc6-c6cccc([n+]63)-c3cccc[n+]34)[n+]3c(cc(C(=O)[O-])c4ccccc43)-c3cc(C(=O)[O-])c4ccccc4[n+]35)cn2)c(OC)c1 [Compound 5] |  |  |  |  |  |  |  | -0.5 | 112.2 | 113.3 | 110.0 | 113.0 | 1.081 and 0.9897 and 0.9798 |  |  |  | 
COc1ccc(/C=C/c2ccncn2)c(OC)c1 [Compound 2] | 1.8 | 111.5 | 3620 | 0.1 | 1.51 | 915 | 1.7 |  |  |  |  |  |  | 5 | 66 | 3.74 | 50
